Assay results from patent US20160251402A1, “MICROPEPTIDES AND USE OF SAME FOR MODULATING GENE EXPRESSION” (UNIVERSITE PAUL SABATIER TOULOUSE III, priority 2013, published 2016).
“Also recorded” adds a separate entry of the source.

Tested on: MtmiR171b
Assay: Accumulation of pri-/pre-/mature MtmiR171b in transformed tobacco leaves
Type: in vivo, Nicotiana benthamiana
Protocol: In order to determine whether the mechanism of regulation of the microRNAs is conserved in other plant species, the regulation of MtmiR171b by MtmiPEP171b1 was tested in a different cellular model. For this, MtmiR171b and MtmiPEP171b1 were introduced into tobacco leaves.
The accumulation of MtmiR171b was measured in tobacco leaves transformed in order to express MtmiR171b of Medicago truncatula starting from wild-type pri-miRNA capable of producing MtmiPEP171b1, or starting from a mutated version of pri-miRNA incapable of producing MtmiPEP171b1 (in which the start codon ATG of MtmiORF171b has been replaced with ATT) (FIG. 6 and FIG. 20).
The accumulation of pre-MtmiR171b was measured in tobacco leaves transformed in order to express MtmiR171b of Medicago truncatula alone (control), or additionally expressing the wild-type MtmiORF171b of Medicago truncatula (35SmiPEP171b1 ATG), or a mutated version of MtmiORF171b in which the start codon ATG has been replaced with ATT (35SmiPEP171b1 ATT) (FIG. 7 and FIG. 21).
The leaves were watered by spraying with the peptides using peptide solutions at different concentrations (0.01, 0.1, 1 μM), firstly 12 h before sampling and then a second time 30 min before sampling.
The total RNA was extracted from roots of M. truncatula or from tobacco leaves using the extraction kit RNeasy Plant Mini Kit (Qiagen). The reverse transcription was performed using the reverse transcriptase SuperScript II (Invitrogen) starting from 500 ng of total RNA. Three repetitions (n=3) were carried out, each with two technical repetitions. Each experiment was repeated from two to three times. The amplifications by qPCR were carried out using a LightCycler 480 System thermocycler (Roche Diagnostics) by the method described in Lauressergues et al. (Plant J., 72(3): 512-22, 2012).
The DNA fragments of interest were amplified with Pfu polymerase (Promega). The DNA fragments were cloned using the XhoI and NotI enzymes into a pPEX-DsRED plasmid for an overexpression under the control of the constitutive strong promoter 35S, and using the KpnI-NcoI enzymes into a pPEX GUS plasmid for the reporter genes, by the method described in Combier et al. (Genes & Dev, 22: 1549-1559, 2008).
The composite plants having roots transformed with Agrobacterium rhizogenes were obtained by the method described in Boisson-Dernier et al. (Mol Plant-Microbe Interact, 18: 1269-1276, 2005). The transformed roots were verified and selected by observations of DsRED with a binocular fluorescence magnifier. The control roots correspond to roots transformed with A. rhizogenes not containing the pPEX-DsRED vector. Transformation of the tobacco leaves was carried out by the method described in Combier et al. (Genes & Dev, 22: 1549-1559, 2008).

Sequence: MLLHRLSKFCKIERDIVYIS (listed as Medicago truncatula) [MtmiPEP171b1]
- relative expression of MtmiR171b (tobacco co-transformed with empty vector, miPEP vector, ATT-mutated ORF or degenerate ORF): increases the expression of MtmiR171b
- relative expression of pre-MtmiR171b (tobacco expressing MtmiR171b alone vs MtmiR171b and MtmiPEP171b1 (or ATT-mutated miORF)): increases the expression of MtmiR171b
- relative expression of pre-MtmiR171b (tobacco expressing MtmiR171b and MtmiPEP171b1 with or without protein tags (His, HA or GFP)): increases the expression of MtmiR171b, and this effect is independent of the presence of tags
- relative expression of MtmiR171b (tobacco expressing MtmiR171b, peptide 0.1 μM sprayed twice, 12 h and 30 min before sampling): increase in the accumulation of MtmiR171b
- relative expression of MtmiR171b (tobacco expressing MtmiR171b, peptide 0.1 μM sprayed twice, 12 h and 30 min before sampling, listed as miPEP171b1): increases the accumulation
- relative expression of pre-MtmiR171b (tobacco expressing MtmiR171b, treated with 0.1 μM of peptide): increase in the accumulation
- relative expression of pre-MtmiR171b (tobacco expressing MtmiR171b, treated with 0.1 μM of peptide, listed as miPEP171b1): increases the accumulation
- relative expression of MtmiR171b (tobacco expressing pri-MtmiR171b vs mutated pri-MtmiR171b (ATG replaced with ATT, no translation of the miPEP)): marked decrease in the accumulation of miR171b; also recorded: marked decrease in the accumulation of MtmiR171b
- relative expression of MtmiR171b (tobacco expressing pri-MtmiR171b vs mutated pri-MtmiR171b (ATG replaced with ATT, no translation of the miPEP), listed as miPEP171b1): marked decrease in the accumulation of miR171b
